Data from publication PMC10059999, “Assessment of Lipophilicity Parameters of Antimicrobial and Immunosuppressive Compounds” (Molecules, 2023).
Converted amounts (≈) assume the structure as drawn. Where two headings read alike, the source gives them in different places.

Key:
[1] = RP-TLC determination of chromatographic lipophilicity parameter RMW (Soczewiński–Wachtmeister extrapolation to pure water); assay type: physicochemical; conditions: for RMW values, range: range over all plates (RP2F254, RP18F254, RP18WF254) and all mobile phases
Method: Thin-layer chromatography aluminum plates (20 cm × 20 cm, 0.25 mm) precoated with silica gel RP18F254, and glass plates coated with silica gel RP18WF254 (20 cm × 10 cm) and silica gel RP2F254 (10 cm × 10 cm) were obtained from Merck (Darmstadt, Germany).
The chromatographic analysis was carried out according to the procedure described earlier on RP-TLC plates (RP2F254, RP18F254, RP18WF254) as a stationary phase using three different mobile phases. Five microliters of standard solutions of analytes were spotted onto the chromatographic plates. The chromatographic chamber 20 cm × 10 cm (Camag, Switzerland) was saturated with the mobile phase vapors for 20 min. The mobile phases were prepared by mixing appropriate organic modifiers (ethanol, propan-2-ol, acetonitrile) and water in different volume compositions. The content of the organic modifier in the mobile phase used was changed in the step of 5% (v/v) in the range of 30–90% v/v. Thus, the mobile phases used consisted of a suitable organic solvent and water mixed in the following volume compositions: 30:70; 35:65; 40:60; 45:55; 50:50; […]; 60:40; 65:35; 70:30; 75:25; 80:20; 85:15 and 90:10. Chromatograms were developed at room temperature (21 ± 1 °C) to the solvent distance of 7 cm. Next, the chromatograms were dried for 24 h at (21 ± 1 °C) in a fume cupboard. The detection of the studied compounds was carried out under a UV lamp at 254 nm (Camag, Muttenz, Switzerland). The values of Rf (retardation factor) are the average values of three independent measurements in each case.

[2] = design: method as in DrugBank; conditions: n-octanol-water, ref DrugBank, cited from earlier work
[3] = design: method as in ChemSpider / selleckchem.com; conditions: ref ChemSpider / selleckchem.com, cited from earlier work; for Solubility in Water / logS: aqueous solubility
[4] = RP2F254 plates, acetonitrile-water mobile phase
[5] = RP2F254 plates, ethanol–water mobile phase
[6] = RP2F254 plates, propan-2-ol-water mobile phase
[7] = RP18F254 plates, acetonitrile-water mobile phase
[8] = RP18F254 plates, ethanol–water mobile phase
[9] = RP18F254 plates, propan-2-ol-water mobile phase
[10] = RP18WF254 plates, acetonitrile-water mobile phase
[11] = RP18WF254 plates, ethanol–water mobile phase
[12] = RP18WF254 plates, propan-2-ol-water mobile phase

Structure (SMILES)	RMW [1, 4]	RMW [1, 5]	RMW [1, 6]	RMW values, range on RP2F254 ([1]; RP2F254 plates, range over the three mobile phases)	RMW [1, 7]	RMW [1, 8]	RMW [1, 9]	RMW [1, 10]	RMW [1, 11]	RMW [1, 12]	RMW values, range [1]	logPexp (Experimental Value) [2]	logPexp (Experimental Value) ([2]; listed as ceftazidime)	Solubility in Water [3] [µg/mL]	logS [3]	pKa (Strongest Acidic) [3]	pKa (Strongest Basic) [3]
CC(C)(O/N=C(\C(=O)N[C@@H]1C(=O)N2C(C(=O)[O-])=C(C[n+]3ccccc3)CS[C@H]12)c1csc(N)n1)C(=O)O [Ceftazidime, ceftazidime]	−0.0357	−0.6643	−0.3642	−0.0357 to −0.6643	0.1462	−2.9545	0.4691	0.4121	0.4152	0.9153	−2.9545 to 0.9153	−1.60	−1.6	5.73 (≈ 10.5 µM)	−5.0	2.42	4.02
Nc1nc(-n2cc(C(=O)O)c(=O)c3cc(F)c(N4CC(O)C4)c(Cl)c32)c(F)cc1F [Delafloxacin, delafloxacin]	0.6615	0.9184	0.7390	–	2.3174	2.1359	1.7719	1.8351	1.9694	1.6940	–	–	–	69.9 (≈ 159 µM)	−3.8	5.62	−1.3
CO[C@H]1C[C@@H]2CC[C@@H](C)[C@@](O)(O2)C(=O)C(=O)N2CCCC[C@H]2C(=O)O[C@H]([C@H](C)C[C@@H]2CC[C@@H](OCCO)[C@H](OC)C2)CC(=O)[C@H](C)/C=C(\C)[C@@H](O)[C@@H](OC)C(=O)[C@H](C)C[C@H](C)/C=C/C=C/C=C/1C [Everolimus, everolimus]	2.8557	2.9460	2.2145	–	2.9462	3.5637	2.5865	2.7737	2.8227	2.5687	2.2145–3.5637	–	–	1.63 (≈ 1.7 µM)	−5.8	9.96	−2.7
CC(=O)NC[C@H]1CN(c2ccc(N3CCSCC3)c(F)c2)C(=O)O1 [Sutezolid, sutezolid]	1.4312	1.4334	1.1590	–	2.2114	1.8680	1.5937	2.0329	1.9661	1.4784	–	–	–	237 (≈ 671 µM)	−3.2	14.85	−0.14
CO[C@H]1C[C@@H]2CC[C@@H](C)[C@@](O)(O2)C(=O)C(=O)N2CCCC[C@H]2C(=O)O[C@H]([C@H](C)C[C@@H]2CC[C@H](n3cnnn3)[C@H](OC)C2)CC(=O)[C@H](C)/C=C(\C)[C@@H](O)[C@@H](OC)C(=O)[C@H](C)C[C@H](C)/C=C/C=C/C=C/1C [Zotarolimus, zotarolimus]	2.7480	3.3623	2.1522	–	3.1252	3.1105	2.4741	3.2300	2.7377	2.7821	2.1522–3.3623	–	–	–	–	–	–
